Measured values reported in US20160022733A1, “NOVEL FORMULA OF IRON BASED NANOCOMPOSITES FOR RAPID AND EFFICIENT TREATMENT OF IRON DEFICIENCY ANEMIA” (NANOTECH FOR PHOTOELECTRONICS RESEARCH, priority 2013, published 2016).

Tested on: Life-threatening iron-deficiency anemic rats
Assay: Hemoglobin concentration after single oral dose in rats with induced life-threatening hemorrhagic anemia
Assay type: in vivo, Albino rats of the Wisconsin Holtzman strain
Details: Ferric Chloride given orally to anemic rats (group 4)
Experimental: Part II: Animal Trial Experimental Design • Five weeks old Albino rats of the Wisconsin Holtzman strain, weighing 150-160 g, were divided into six, as showing below Rats of groups 1-5 were exposed daily to blood withdrawal from inner canthus of eyes. The hemoglobin concentration of collected blood samples in heparinized tubes was measured by colorimetric method using commercially available kit (Drabkin's solution). […] Rats of control group were not exposed to any blood withdrawal. After induction of Life-threatening hemorrhagic anemia, all rats were fasted for 6 hours prior their oral administration with different treatments and doses. […] Two control groups were allocated for this pilot experiment; group 5 where rats were exposed to Life-threatening hemorrhagic anemia and treated with the vitamins mixture dissolved with Nano sized magnetite (Ascorbic, folic and nicotinic acids), and group 6 where rats were non-anemic and administered distilled water (Table 1). Rats of different groups were left for 3 days after oral administration of different treatments, fed ad libitum on balanced diet containing iron and clean tap water. Blood samples were collected on 4th and 7th day after dosing and Hb concentration was measured using colorimetric method.

[Cl][Fe]([Cl])[Cl] [Ferric Chloride]
Effect on Hb. concentration: corrected the Hb. concentration but achieved neither the levels in Nano-sized magnetite groups nor the level in control non-anemic rats
